Where two headings read alike, the source gives them in different places. Bounds are passed on as bounds.

Assay [1] addresses COVID-19 (nCoV-2019, SARS-CoV2) Mpro (Severe acute respiratory syndrome coronavirus 2, UniProt P0DTD1). The assay can be described thus: COVID-19 (nCoV-2019, SARS-CoV2) Mpro enzymatic assay. Type of assay: biochemical. The following applies: 25 nM Mpro, 25 μM substrate; read-out: COVID-19 Mpro IC50.
The target of the next assay is 229E Mpro (Human coronavirus 229E, UniProt P0C6X1). Briefly: 229E Mpro enzymatic assay (standard methods, SARS-CoV2 Mpro assay given as exemplary). Type of assay: biochemical, human coronavirus (HCov) 229E. The gist of the method:
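IC50 for 229E Mpro by standard methods; exemplary SARS-CoV-2 protocol used C-His6-tagged Mpro from E. coli, 25 nM enzyme, 25 μM substrate (Km 13.5 μM), in Tris-HCl pH 7.3, NaCl, EDTA, TCEP, 0.1% BSA. Inhibition normalised to no-compound and full-effect controls; four-parameter fit.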

Another assay has as its system HCov OC43. The assay can be described thus: HCoV OC43 cytopathic effect (CPE) assay, CellTiter Glo. The format is cell-based, human coronavirus (HCov) OC43.
The mark [2] stands for this setting: Betacoronavirus 1, OC43, read-out: OC43 IC50 (uM) MEDIAN, median.
Setting [3] is: read-out: OC43 IC50 (uM) MEDIAN, median.

Chain of 229E Mpro (P0C6X1 2966-3267): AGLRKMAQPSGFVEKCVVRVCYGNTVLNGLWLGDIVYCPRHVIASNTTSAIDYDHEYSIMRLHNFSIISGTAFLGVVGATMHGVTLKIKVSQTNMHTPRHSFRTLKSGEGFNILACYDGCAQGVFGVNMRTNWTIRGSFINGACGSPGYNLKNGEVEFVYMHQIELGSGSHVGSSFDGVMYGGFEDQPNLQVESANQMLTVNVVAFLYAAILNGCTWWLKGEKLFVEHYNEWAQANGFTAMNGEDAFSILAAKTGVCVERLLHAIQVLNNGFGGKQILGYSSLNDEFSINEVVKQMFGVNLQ

In the case of `CC(C)(C)c1ccc(N(C(=O)[C@H]2CCCN2C#N)C(C(=O)N2CCOCC2)c2cccnc2)cc1` (single isomer, unassigned) [Compound 959 Isomer 1], the IC50 is greater than 30000 nM in assay [1] and 10 to 30 µM in the assay with HCov OC43 (read-out: OC43 IC50 (uM) MEDIAN, median, listed as 959 Isomer 1). For the same compound, the EC50 at 229E Mpro (229E Mpro EC50) fell in the range of 2000 to 10000 nM.
Turning to `CC(C)(C)c1ccc(N(C(=O)[C@H]2CCCN2C#N)C(C(=O)N2CCOCC2)c2cccnc2)cc1` (single isomer, unassigned) [Compound 959 Isomer 2], the IC50 in assay [1] is 2000 to 10000 nM; with HCov OC43 (read-out: OC43 IC50 (uM) MEDIAN, median, listed as 959 Isomer 2), 2 to 10 µM. Further, the EC50 at 229E Mpro (229E Mpro EC50) was less than 2000 nM.
Turning to `CC(C)(C)c1ccc(N(C(=O)[C@H]2CCCN2C#N)C(C(=O)N2CCNC(=O)C2)c2cccnc2)cc1` (single isomer, unassigned) [Compound 961 Isomer 1], the IC50 in assay [1] is 2000 to 10000 nM; with HCov OC43 (read-out: OC43 IC50 (uM) MEDIAN, median, listed as 961 Isomer 1), 2 to 10 µM. The same compound returned a concentration giving a half-maximal response (EC50) at 229E Mpro (229E Mpro EC50) of less than 2000 nM.
As to `CC(C)(C)c1ccc(N(C(=O)[C@H]2CCCN2C#N)C(C(=O)N2CCNC(=O)C2)c2cccnc2)cc1` (single isomer, unassigned) [Compound 961 Isomer 2], the 50% inhibitory concentration (IC50) in assay [1] was greater than 30000 nM; in the assay on HCov OC43 (read-out: OC43 IC50 (uM) MEDIAN, median, listed as 961 Isomer 2), 10 to 30 µM. This compound also had an EC50 on 229E Mpro (229E Mpro EC50) of 2000 to 10000 nM.
For the compound `CC(C(=O)NC1CCC(F)(F)CC1)(c1cccnc1)N(C(=O)[C@H]1C[C@@](C)(O)CN1C#N)c1ccc(S(F)(F)(F)(F)F)cc1` (single isomer, unassigned) [Compound 1077 Isomer 1], the values for the IC50 (in assay [1]; with HCov OC43 (setting [2])) were 10000 to 30000 nM and 2 to 10 µM, respectively. For the same compound, the EC50 at 229E Mpro (229E Mpro EC50) was less than 2000 nM.
`CC(C(=O)NC1CCC(F)(F)CC1)(c1cccnc1)N(C(=O)[C@H]1C[C@@](C)(O)CN1C#N)c1ccc(S(F)(F)(F)(F)F)cc1` (single isomer, unassigned) [Compound 1077 Isomer 2]: the values for the IC50 (in assay [1]; in the assay with HCov OC43 (setting [3])) were less than 2000 nM and less than 2 µM, respectively. Also, on 229E Mpro (read-out: 229E Mpro EC50), the concentration giving a half-maximal response (EC50) was less than 2000 nM.
On to `N#CN1C[C@H]2C[C@H]2[C@@H]1C(=O)N(c1ccc(S(F)(F)(F)(F)F)cc1)C(C(=O)NC1CCC(F)(F)CC1)c1cncc(F)c1` (single isomer, unassigned) [Compound 1095b Isomer 1], for which the IC50 is less than 2000 nM in assay [1] and less than 2 µM with HCov OC43 (setting [2]). Further, the EC50 at 229E Mpro (229E Mpro EC50) was less than 2000 nM.
With `N#CN1C[C@H](F)C[C@@H]1C(=O)N(c1ccc(S(F)(F)(F)(F)F)cc1)C(C(=O)NC1CCC(F)(F)CC1)c1cncc(F)c1` (single isomer, unassigned) [Compound 1098 Isomer 1], the IC50 is 2000 to 10000 nM in assay [1] and 2 to 10 µM with HCov OC43 (setting [2]). Besides, the EC50 on 229E Mpro (229E Mpro EC50) was less than 2000 nM.
Take `N#CN1C[C@H](F)C[C@@H]1C(=O)N(c1ccc(S(F)(F)(F)(F)F)cc1)C(C(=O)NC1CCC(F)(F)CC1)c1cncc(F)c1` (single isomer, unassigned) [Compound 1098 Isomer 2]: the IC50 in assay [1] was less than 2000 nM; with HCov OC43 (setting [3]), less than 2 µM. Further, at 229E Mpro (read-out: 229E Mpro EC50), the EC50 is less than 2000 nM.
For the compound `N#CN1C[C@@H](F)C[C@@H]1C(=O)N(c1ccc(S(F)(F)(F)(F)F)cc1)C(C(=O)NC1CCC(F)(F)CC1)c1cncc(F)c1` (single isomer, unassigned) [Compound 1099 Isomer 1], the values for the IC50 (in assay [1]; in the assay with HCov OC43 (setting [2])) were less than 2000 nM and less than 2 µM, respectively. On 229E Mpro (229E Mpro EC50), this compound registered an EC50 of less than 2000 nM.
With `N#CN1C[C@@H](F)C[C@@H]1C(=O)N(c1ccc(S(F)(F)(F)(F)F)cc1)C(C(=O)NC1CCC(F)(F)CC1)c1cncc(F)c1` (single isomer, unassigned) [Compound 1099 Isomer 2], the IC50 in assay [1] is less than 2000 nM; in the assay on HCov OC43 (setting [3]), 2 to 10 µM. The EC50 at 229E Mpro (read-out: 229E Mpro EC50) is less than 2000 nM.
With `CO[C@@H]1C[C@H](C(=O)N(c2ccc(S(F)(F)(F)(F)F)cc2)C(C(=O)N(C)CC(=O)NC2CC2)c2cccnc2)N(C#N)C1` (single isomer, unassigned) [Compound 1122], the IC50 in assay [1] was less than 2000 nM; with HCov OC43 (setting [2]), less than 2 µM. On 229E Mpro (229E Mpro EC50), this compound registered an EC50 of less than 2000 nM.
On to `CC1(C)CCNc2cc(N(C(=O)[C@H]3C[C@@](C)(O)CN3C#N)C(C(=O)NC3CCC(F)(F)CC3)c3cncc(F)c3)ccc21` (single isomer, unassigned) [Compound 1127 Isomer 1], for which the IC50 in assay [1] is less than 2000 nM; in the assay with HCov OC43 (setting [3]), less than 2 µM. At 229E Mpro (229E Mpro EC50), this compound gave an EC50 of less than 2000 nM.
As to `CC1(C)CCNc2cc(N(C(=O)[C@H]3C[C@@](C)(O)CN3C#N)C(C(=O)NC3CCC(F)(F)CC3)c3cncc(F)c3)ccc21` (single isomer, unassigned) [Compound 1127 Isomer 2], the IC50 was less than 2000 nM in assay [1] and less than 2 µM in the assay on HCov OC43 (setting [2]). For the same compound, on 229E Mpro (read-out: 229E Mpro EC50), the EC50 is less than 2000 nM.
On to `CC1(C)CN(C#N)[C@@H](C(=O)N(c2ccc(C(C)(C)C)cc2)C(C(=O)NC2CCOCC2)c2cccnc2)CO1` (single isomer, unassigned) [Compound 1141], for which the IC50 in assay [1] was less than 2000 nM; in the assay with HCov OC43 (setting [2]), 2 to 10 µM. The compound further returned an EC50 on 229E Mpro (229E Mpro EC50) of less than 2000 nM.
For the compound `N#CN1CC(=O)NCC1C(=O)N(c1ccc(S(F)(F)(F)(F)F)cc1)C(C(=O)NC1CCC(F)(F)CC1)c1cncc(F)c1` (single isomer, unassigned) [Compound 1160 Isomer 1, 1-cyano-N-[2-[(4,4-difluorocyclohexyl)amino]-1-(5-fluoro-3-pyridyl)-2-oxo-ethyl]-5-oxo-N-[4-(pentafluoro-λ6-sulfanyl)phenyl]piperazine-2-carboxamide], the IC50 in assay [1] is less than 2000 nM; in the assay with HCov OC43 (setting [2]), less than 2 µM. In addition, the EC50 on 229E Mpro (229E Mpro EC50) was less than 2000 nM.
With `N#CN1CC(=O)NCC1C(=O)N(c1ccc(S(F)(F)(F)(F)F)cc1)C(C(=O)NC1CCC(F)(F)CC1)c1cncc(F)c1` (single isomer, unassigned) [Compound 1160 Isomer 2, 1-cyano-N-[2-[(4,4-difluorocyclohexyl)amino]-1-(5-fluoro-3-pyridyl)-2-oxo-ethyl]-5-oxo-N-[4-(pentafluoro-λ6-sulfanyl)phenyl]piperazine-2-carboxamide], the IC50 in assay [1] was 2000 to 10000 nM; in the assay with HCov OC43 (read-out: OC43 IC50 (uM) MEDIAN, median, listed as 1160 Isomer 2), 2 to 10 µM. Moreover, at 229E Mpro (229E Mpro EC50), the concentration giving a half-maximal response (EC50) was 2000 to 10000 nM.
`N#CN1CC(=O)NCC1C(=O)N(c1ccc(S(F)(F)(F)(F)F)cc1)C(C(=O)NC1CCC(F)(F)CC1)c1cncc(F)c1` (single isomer, unassigned) [Compound 1160 Isomer 3, 1-cyano-N-[2-[(4,4-difluorocyclohexyl)amino]-1-(5-fluoro-3-pyridyl)-2-oxo-ethyl]-5-oxo-N-[4-(pentafluoro-λ6-sulfanyl)phenyl]piperazine-2-carboxamide]: the IC50 in assay [1] fell in the range of 2000 to 10000 nM; in the assay with HCov OC43 (read-out: OC43 IC50 (uM) MEDIAN, median, listed as 1160 Isomer 3), 2 to 10 µM. Also, the EC50 on 229E Mpro (229E Mpro EC50) is less than 2000 nM.
As for `N#CN1CC(=O)NCC1C(=O)N(c1ccc(S(F)(F)(F)(F)F)cc1)C(C(=O)NC1CCC(F)(F)CC1)c1cncc(F)c1` (single isomer, unassigned) [Compound 1160 Isomer 4, 1-cyano-N-[2-[(4,4-difluorocyclohexyl)amino]-1-(5-fluoro-3-pyridyl)-2-oxo-ethyl]-5-oxo-N-[4-(pentafluoro-λ^6-sulfanyl)phenyl]piperazine-2-carboxamide], the IC50 in assay [1] is 2000 to 10000 nM; in the assay on HCov OC43 (read-out: OC43 IC50 (uM) MEDIAN, median, listed as 1160 Isomer 4), 2 to 10 µM. For the same compound, the concentration giving a half-maximal response (EC50) at 229E Mpro (229E Mpro EC50) was less than 2000 nM.
For the compound `CN1CC(C(=O)N(c2ccc(S(F)(F)(F)(F)F)cc2)C(C(=O)NC2CCC(F)(F)CC2)c2cncc(F)c2)N(C#N)CC1=O` (single isomer, unassigned) [Compound 1161 Isomer 1, 1-cyano-N-[2-[(4,4-difluorocyclohexyl)amino]-1-(5-fluoro-3-pyridyl)-2-oxo-ethyl]-4-methyl-5-oxo-N-[4-(pentafluoro-λ6-sulfanyl)phenyl]piperazine-2-carboxamide], the IC50 in assay [1] is less than 2000 nM; in the assay with HCov OC43 (read-out: OC43 IC50 (uM) MEDIAN, median, listed as 1161 Isomer 1), less than 2 µM. For the same compound, the EC50 at 229E Mpro (229E Mpro EC50) was less than 2000 nM.
Regarding `CN1CC(C(=O)N(c2ccc(S(F)(F)(F)(F)F)cc2)C(C(=O)NC2CCC(F)(F)CC2)c2cncc(F)c2)N(C#N)CC1=O` (single isomer, unassigned) [Compound 1161 Isomer 2, 1-cyano-N-[2-[(4,4-difluorocyclohexyl)amino]-1-(5-fluoro-3-pyridyl)-2-oxo-ethyl]-4-methyl-5-oxo-N-[4-(pentafluoro-λ6-sulfanyl)phenyl]piperazine-2-carboxamide], the IC50 in assay [1] was 2000 to 10000 nM; with HCov OC43 (read-out: OC43 IC50 (uM) MEDIAN, median, listed as 1161 Isomer 2) it was 2 to 10 µM. At 229E Mpro (229E Mpro EC50), this compound came in with an EC50 of 2000 to 10000 nM.
On to `CN1CC(C(=O)N(c2ccc(S(F)(F)(F)(F)F)cc2)C(C(=O)NC2CCC(F)(F)CC2)c2cncc(F)c2)N(C#N)CC1=O` (single isomer, unassigned) [Compound 1161 Isomer 3, 1-cyano-N-[2-[(4,4-difluorocyclohexyl)amino]-1-(5-fluoro-3-pyridyl)-2-oxo-ethyl]-4-methyl-5-oxo-N-[4-(pentafluoro-λ6-sulfanyl)phenyl]piperazine-2-carboxamide], for which the IC50 in assay [1] lay within 2000 to 10000 nM; with HCov OC43 (read-out: OC43 IC50 (uM) MEDIAN, median, listed as 1161 Isomer 3), 10 to 30 µM. The compound further came in with an EC50 at 229E Mpro (229E Mpro EC50) of 2000 to 10000 nM.
